Here are results for 14 molecules from US20210315893A1 (Galapagos NV, priority 2017, published 2021).

Assay [1] addresses T1, human GPCR sphingosine 1-phosphate receptor 5 (Homo sapiens, UniProt Q9H228).
T1 construct: host or cells: CHO
Kind of assay: S1PR5 selectivity Ca2+ flux assay (antagonist readout). Type of assay: cell-based. The note with it: CHO cells overexpressing human S1PR5 and Gq, agonist at EC80 (20 nM), read-out: S1P5 EC50 (nM), S1P5 antagonist EC50. Put shortly:
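Antagonist readout: after 15 min compound preincubation at 37° C, human S1PR5/Gq CHO cells loaded with Fluo 8 dye received an EC80 challenge of S1PR5-specific agonist, and fluorescence was recorded for 3 min. Maximal-over-background ratios, normalized as % inhibition, gave IC50 by logistic fit.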
(In general: Calcium assays in cells follow changes in intracellular calcium, usually with a dye or a luminescent sensor.)

Assay [2] deals with T2, human GPCR sphingosine 1-phosphate receptor 2 (Homo sapiens, UniProt O95136).
T2 construct: host or cells: CHO
T2 sequence (O95136 whole entry): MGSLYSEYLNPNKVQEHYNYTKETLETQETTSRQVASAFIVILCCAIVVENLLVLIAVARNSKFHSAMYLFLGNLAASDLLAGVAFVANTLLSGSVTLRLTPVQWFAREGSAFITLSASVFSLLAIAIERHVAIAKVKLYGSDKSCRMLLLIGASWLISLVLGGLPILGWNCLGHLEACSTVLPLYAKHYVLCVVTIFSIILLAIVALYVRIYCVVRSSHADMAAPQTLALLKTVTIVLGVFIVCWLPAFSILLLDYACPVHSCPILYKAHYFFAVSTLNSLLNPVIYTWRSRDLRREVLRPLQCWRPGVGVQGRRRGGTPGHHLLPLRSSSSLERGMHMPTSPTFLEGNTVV
The assay can be described thus: S1PR2 antagonist Ca2+ flux assay. The class given is cell-based. The note with it: antagonist mode, CHO-S1PR2 cells, S1P at EC80, Ca2+ fluorescence; read-out: S1P2 EC50 (nM), S1P2 antagonist EC50. Put shortly: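 Antagonist mode: 15 min after compound addition, S1P (EC80) stimulates Fluo8-loaded, 1 h-starved CHO-S1PR2 cells, Ca2+ read over 3 min; a prior 3-min read checks compound agonism. EC50 from peak/baseline fluorescence ratio, normalised versus vehicle and S1P EC50 (antagonist) or EC100 (agonist).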

In assay [3] the target is T3, human GPCR sphingosine 1-phosphate receptor 1 (Homo sapiens, UniProt P21453).
T3 construct: host or cells: CHO
T3 sequence (P21453 whole entry): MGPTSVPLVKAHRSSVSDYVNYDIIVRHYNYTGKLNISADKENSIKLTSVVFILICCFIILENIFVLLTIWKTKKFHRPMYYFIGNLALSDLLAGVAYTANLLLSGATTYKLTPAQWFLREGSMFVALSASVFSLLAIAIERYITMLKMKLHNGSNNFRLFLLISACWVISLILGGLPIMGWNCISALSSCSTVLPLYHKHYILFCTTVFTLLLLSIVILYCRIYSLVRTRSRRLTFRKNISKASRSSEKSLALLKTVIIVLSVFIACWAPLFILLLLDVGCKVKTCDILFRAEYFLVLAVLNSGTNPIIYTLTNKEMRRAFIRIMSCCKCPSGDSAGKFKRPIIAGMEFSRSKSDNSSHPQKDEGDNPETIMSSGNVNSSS
Kind of assay: S1PR1 selectivity Ca2+ flux assay (antagonist readout). Type of assay: cell-based. The note with it: antagonist readout, CHO cells overexpressing human S1PR1 and Gq, S1P at EC80 (6 nM); read-out: S1P1 EC50 (nM), S1P1 antagonist EC50. A digest of the protocol: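 Antagonist mode: S1P challenge follows 15 min compound preincubation at 37 °C. Cells are CHO stably expressing human S1PR1, serum-starved 1 h (0.1% FAF BSA), loaded with Fluo 8. Peak-over-baseline fluorescence ratio is normalized to positive/negative controls; IC50 from logistic curve fit.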

Assay [4] has as its system HFL-1 cells. Kind of assay: IL8 assay in the presence of Human Serum Albumin. The note with it: HFL1, read-out: HSA IL8 EC50.
In assay [5] the test system is HFL-1 cells. The assay can be described thus: IL-8 production assay (S1P induced IL-8). The note with it: Homo sapiens, HFL1; S1P (1 μM) induced IL-8 in HFL-1 cells, starvation medium without HSA; read-out: IL8 EC50. Type of assay: cell-based. A digest of the protocol: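 HFL-1 fibroblasts in low-serum medium were pretreated 1 h with a 10-point 1/3 series of compound starting at 30 μM (0.3% DMSO).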

In the next assay the target is T4, S1PR2 (Homo sapiens, UniProt O95136).
T4 construct: expressed in transfected cells
T4 sequence (O95136 whole entry): as the sequence (O95136 whole entry) above
The assay can be described thus: S1PR2 binding assay (competition with radioactively labeled S1P, SpA). The note with it: membranes from stable cell line over expressing S1PR2, SpA beads; read-out: S1P2 EC50 (nM), S1PR2 binding EC50. A digest of the protocol:
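Scintillation proximity read-out after 2 h room-temperature incubation of compound, [3H]S1P and S1PR2-overexpressing cell membranes on WGA-coated beads. Buffer: 20 mM Tris pH 7.5, 100 mM NaCl, 10 mM MgCl2, 1 mM Na3VO4, 0.4% fatty-acid-free BSA; plates counted immediately after centrifugation.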

T1 sequence (Q9H228 whole entry): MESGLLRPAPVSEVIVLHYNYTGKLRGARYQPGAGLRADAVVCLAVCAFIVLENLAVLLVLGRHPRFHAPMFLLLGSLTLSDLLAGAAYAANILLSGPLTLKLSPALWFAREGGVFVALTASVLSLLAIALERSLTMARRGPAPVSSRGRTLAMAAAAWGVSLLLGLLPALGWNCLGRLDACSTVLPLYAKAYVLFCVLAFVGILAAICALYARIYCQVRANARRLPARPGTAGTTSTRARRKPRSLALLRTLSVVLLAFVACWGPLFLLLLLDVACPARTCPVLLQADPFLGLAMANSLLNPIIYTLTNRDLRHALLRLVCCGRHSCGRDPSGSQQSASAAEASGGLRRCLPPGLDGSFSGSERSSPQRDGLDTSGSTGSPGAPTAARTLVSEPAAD

Usually EC50 stands for the concentration at which the effect is half-maximal. As to `O=C(O)Cn1nc(Cn2[nH]c3cc(OCC4CC4)c(Cl)cc3c2=O)c2ccccc2c1=O` [Compound 134, 2-[4-[[5-chloro-6-(cyclopropylmethoxy)-3-oxo-1H-indazol-2-yl]methyl]-1-oxo-phthalazin-2-yl]acetic acid], the EC50 in assay [1] is 19800 nM; in assay [2], 10 nM; in assay [3], 12000 nM; with HFL-1 cells [4] it was 163 nM; in the assay with HFL-1 cells [5] it was 10.1 nM; at S1PR2, 745 nM.

As to `CC1(C)CN(C(=O)Cn2nc(Cc3nc4cc(OCC(F)F)c(C#N)cc4[nH]3)c3ccccc3c2=O)CCO1` [Compound 227, 6-(2,2-difluoroethoxy)-2-[[3-[2-(2,2-dimethylmorpholin-4-yl)-2-oxo-ethyl]-4-oxo-phthalazin-1-yl]methyl]-3H-benzimidazole-5-carbonitrile], the 50% effective concentration (EC50) is 19800 nM in assay [1]; 14.5 nM in assay [2]; not below 19800 nM in assay [3]; 84.2 nM in the assay with HFL-1 cells [4]; 16.9 nM in the assay with HFL-1 cells [5]; 82.1 nM at S1PR2.

Take `N#Cc1cc2[nH]c(Cc3nn(CC4CCCN4CC(=O)O)c(=O)c4ccccc34)nc2cc1OCC(F)F` (stereo not drawn) [Compound 70, 2-[2-[[4-[[6-cyano-5-(2,2-difluoroethoxy)-1H-benzimidazol-2-yl]methyl]-1-oxo-phthalazin-2-yl]methyl]pyrrolidin-1-yl]acetic acid]: the EC50 in assay [1] is 19800 nM; in assay [2], 836 nM; in assay [3] it was not below 19800 nM; in the assay with HFL-1 cells [4], 443 nM; in the assay with HFL-1 cells [5], 251 nM; at S1PR2, 2100 nM.

For the molecule `COCCOc1cc2nc(Cc3nn(CC(=O)N4CCOCC4)c(=O)c4ccccc34)[nH]c2cc1C#N` [Compound 51, 6-(2-methoxyethoxy)-2-[[3-(2-morpholino-2-oxo-ethyl)-4-oxo-phthalazin-1-yl]methyl]-3H-benzimidazole-5-carbonitrile], the half-maximal effective concentration (EC50) in assay [1] is 19800 nM; in assay [2], 77.3 nM; in assay [3], not below 19800 nM; in the assay on HFL-1 cells [4], 291 nM; in the assay on HFL-1 cells [5] it was 177 nM; at S1PR2, 366 nM.

As for `O=C(O)Cn1nc(Cc2nc3cc(OCC(F)F)c(Cl)cc3[nH]2)c2c(F)ccc(F)c2c1=O` [Compound 126, 2-[4-[[6-chloro-5-(2,2-difluoroethoxy)-1H-benzimidazol-2-yl]methyl]-5,8-difluoro-1-oxo-phthalazin-2-yl]acetic acid], the EC50 in assay [1] is 19800 nM; in assay [2], 19.1 nM; in assay [3] it was not below 19800 nM; with HFL-1 cells [4] it was 113 nM; with HFL-1 cells [5] it was 5.97 nM; on S1PR2, 93.5 nM.

Take `COc1cc2[nH]c(Cc3nn(CC(=O)O)c(=O)c4c3CCCC4)nc2cc1Cl` [Compound 120, 2-[4-[(5-chloro-6-methoxy-1H-benzimidazol-2-yl)methyl]-1-oxo-5,6,7,8-tetrahydrophthalazin-2-yl]acetic acid]: the EC50 in assay [1] was 19800 nM; in assay [2] it was 57 nM; in assay [3] it was not below 19800 nM; in the assay on HFL-1 cells [4], 822 nM; with HFL-1 cells [5], 96.7 nM; at S1PR2 it was 392 nM.

On to `CC(C(=O)O)n1nc(Cc2cn3cc(OCC4CC4)c(C#N)cc3n2)c2ccccc2c1=O` (stereo not drawn) [Compound 81, 2-[4-[[7-cyano-6-(cyclopropylmethoxy)imidazo[1,2-a]pyridin-2-yl]methyl]-1-oxo-phthalazin-2-yl]propanoic acid], for which the EC50 in assay [1] was 19800 nM; in assay [2] it was 22.6 nM; in assay [3] it was not below 19800 nM; in the assay with HFL-1 cells [4], 151 nM; in the assay on HFL-1 cells [5] it was 20 nM; at S1PR2, 120 nM.

For the molecule `COCCOc1cc2nc(Cc3nn(C4CCNC4)c(=O)c4ccccc34)[nH]c2cc1Cl` (stereo not drawn) [Compound 67, 4-[[6-chloro-5-(2-methoxyethoxy)-1H-benzimidazol-2-yl]methyl]-2-pyrrolidin-3-yl-phthalazin-1-one], the 50% effective concentration (EC50) is 19800 nM in assay [1]; 37.4 nM in assay [2]; not below 19800 nM in assay [3]; 19.2 nM with HFL-1 cells [4]; 9.07 nM with HFL-1 cells [5]; 64.9 nM on S1PR2.

With `O=C(Cc1nn(Cc2nc3cc(OCC(F)F)c(F)cc3[nH]2)c2ccccc2c1=O)N1CCOCC1` [Compound 50, 1-[5-(2,2-Difluoro-ethoxy)-6-fluoro-1H-benzoimidazol-2-ylmethyl]-3-(2-morpholin-4-yl-2-oxo-ethyl)-1H-cinnolin-4-one], the EC50 in assay [1] was 19800 nM; in assay [2], 195 nM; in assay [3], not below 19800 nM; in the assay on HFL-1 cells [4], 365 nM; with HFL-1 cells [5], 246 nM; on S1PR2, 267 nM.

Turning to `CS(=O)(=O)NC(=O)Cn1nc(Cc2nc3cc(OCC4CC4)c(Cl)cc3[nH]2)c2ccccc2c1=O` [Compound 242, 2-[4-[[6-chloro-5-(cyclopropylmethoxy)-1H-benzimidazol-2-yl]methyl]-1-oxo-phthalazin-2-yl]-N-methylsulfonyl-acetamide], the EC50 is 19800 nM in assay [1]; 19.2 nM in assay [2]; 560 nM in assay [3]; 111 nM in the assay with HFL-1 cells [4]; 77.3 nM with HFL-1 cells [5]; 299 nM on S1PR2.

In the case of `O=C(O)c1nn(Cc2cn3cc(OCC4CC4)c(Cl)cc3n2)c2ccccc2c1=O` [Compound 85, 1-[[7-chloro-6-(cyclopropylmethoxy)imidazo[1,2-a]pyridin-2-yl]methyl]-4-oxo-cinnoline-3-carboxylic acid], the concentration for a half-maximal effect (EC50) in assay [1] is 19800 nM; in assay [2], 37.4 nM; in assay [3], not below 19800 nM; in the assay on HFL-1 cells [4], 2280 nM; in the assay on HFL-1 cells [5] it was 78.9 nM; at S1PR2, 619 nM.

For the molecule `O=C(O)c1cn(Cc2cn3cc(OCC4CC4)c(Cl)cc3n2)c2ccccc2c1=O` [Compound 84, 1-[[7-chloro-6-(cyclopropylmethoxy)imidazo[1,2-a]pyridin-2-yl]methyl]-4-oxo-quinoline-3-carboxylic acid], the concentration for a half-maximal effect (EC50) is 19800 nM in assay [1]; 41.9 nM in assay [2]; not below 19800 nM in assay [3]; 2460 nM with HFL-1 cells [4]; 198 nM in the assay with HFL-1 cells [5]; 459 nM on S1PR2.

Turning to `N#Cc1cc2[nH]c(Cc3nn(C4CCN(CC(=O)O)C4)c(=O)c4ccccc34)nc2cc1OCC(F)F` (stereo not drawn) [Compound 71, 2-[3-[4-[[6-cyano-5-(2,2-difluoroethoxy)-1H-benzimidazol-2-yl]methyl]-1-oxo-phthalazin-2-yl]pyrrolidin-1-yl]acetic acid], the EC50 was 19800 nM in assay [1]; 356 nM in assay [2]; not below 19800 nM in assay [3]; 134 nM with HFL-1 cells [4]; 156 nM in the assay with HFL-1 cells [5]; 357 nM at S1PR2.

Consider `O=c1c2ccccc2c(Cc2nc3cc(Cl)c(OC(F)(F)F)cc3[nH]2)nn1CC1CCNC1` (stereo not drawn) [Compound 57, 4-[[6-chloro-5-(trifluoromethoxy)-1H-benzimidazol-2-yl]methyl]-2-(pyrrolidin-3-ylmethyl)phthalazin-1-one], for which the EC50 is 19800 nM in assay [1]; 163 nM in assay [2]; not below 19800 nM in assay [3]; 501 nM in the assay with HFL-1 cells [4]; 552 nM in the assay with HFL-1 cells [5]; 457 nM on S1PR2.
